According to patent publication US7897602B2, “Indolinone compounds as kinase inhibitors” (Development Center for Biotechnology, priority 2009, dated 2011):

How the values were obtained:
[1] = biological target: T1, PDGFR-β kinase (Homo sapiens, UniProt P09619); experiment: PDGFR-β kinase assay (33P incorporation into Poly(Glu-Tyr)); assay type: biochemical; conditions: 500 nM test compound
T1 construct: recombinant N-terminal 6×His-tagged PDGFR-β kinase domain construct expressed by baculovirus; 6xHis (N); made in house
T1 sequence (P09619 600-962 limits assumed): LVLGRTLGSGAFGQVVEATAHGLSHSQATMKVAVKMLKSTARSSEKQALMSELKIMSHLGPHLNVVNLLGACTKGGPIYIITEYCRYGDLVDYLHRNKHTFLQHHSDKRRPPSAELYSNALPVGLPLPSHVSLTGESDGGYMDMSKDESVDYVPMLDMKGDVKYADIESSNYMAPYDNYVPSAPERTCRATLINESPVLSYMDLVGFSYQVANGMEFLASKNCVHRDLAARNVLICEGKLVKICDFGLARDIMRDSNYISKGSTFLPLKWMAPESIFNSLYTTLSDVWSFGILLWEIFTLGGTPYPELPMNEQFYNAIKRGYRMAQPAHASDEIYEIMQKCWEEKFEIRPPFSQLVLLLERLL
In short: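 His-tagged PDGFR-β kinase domain (55 ng) with Poly(Glu-Tyr) 4:1, 30 μM ATP plus [33P]-γ-ATP, pH 7.0 MnCl2 buffer, and 500 nM compound for 30 min at 30° C. Filter-bound radioactivity counted; inhibition computed relative to DMSO control.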

[2] = biological target: T2, c-Met kinase (Homo sapiens, UniProt P08581); experiment: c-Met kinase assay (33P incorporation into Poly(Glu-Tyr)); assay type: biochemical; conditions: 500 nM test compound
T2 construct: recombinant N-terminal 6×His-tagged c-Met kinase domain construct expressed from baculovirus; 6xHis (N); made in house
T2 sequence (P08581 1078-1345 limits assumed): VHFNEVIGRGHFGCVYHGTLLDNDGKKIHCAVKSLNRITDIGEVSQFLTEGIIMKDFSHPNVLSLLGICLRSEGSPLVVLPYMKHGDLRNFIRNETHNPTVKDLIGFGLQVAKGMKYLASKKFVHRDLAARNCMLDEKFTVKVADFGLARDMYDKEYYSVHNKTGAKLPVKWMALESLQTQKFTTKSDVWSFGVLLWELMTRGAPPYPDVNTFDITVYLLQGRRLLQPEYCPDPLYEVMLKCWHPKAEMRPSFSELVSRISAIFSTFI
In short: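 Single-concentration test (500 nM compound) at 30° C for 30 min, pH 7.0 MOPS buffer with 100 μM ATP and [33P]-γ-ATP. Enzyme was baculovirus-expressed 6×His c-Met kinase domain (5 ng), substrate Poly(Glu-Tyr) 4:1. Inhibition percentage derived from filter-bound counts relative to DMSO control.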

inhibition at 0.5 µM [1] [%] | inhibition at 0.5 µM [2] [%] | Structure (SMILES)
1.4 | 5 | CCOC(=O)CCc1c(/C=C2\C(=O)Nc3ccc(NC(=O)Nc4cccc5ccccc45)cc32)[nH]c2c1C(=O)CCC2 [DCB-70129, (Z)-ethyl 3-(2-((5-(3-naphthalen-1-ylureido)-2-oxoindolin-3-ylidene)methyl)-4-oxo-4,5,6,7-tetrahydro-1H-indol-3-yl)propanoate]
84.9 | 4.2 | CCOC(=O)CCc1c(/C=C2\C(=O)Nc3cc(Br)ccc32)[nH]c2c1C(=O)CCC2 [DCB-70130, (Z)-ethyl 3-(2-((6-bromo-2-oxoindolin-3-ylidene)methyl)-4-oxo-4,5,6,7-tetrahydro-1H-indol-3-yl)propanoate]
40.8 | -2.1 | CCOC(=O)CCc1c(/C=C2\C(=O)Nc3ccc(NCc4ccccc4)cc32)[nH]c2c1C(=O)CCC2 [DCB-70131, (Z)-ethyl 3-(2-((5-(benzylamino)-2-oxoindolin-3-ylidene)methyl)-4-oxo-4,5,6,7-tetrahydro-1H-indol-3-yl)propanoate]
29.3 | 13.7 | O=C(O)CCc1c(/C=C2\C(=O)Nc3ccc(NCc4ccccc4)cc32)[nH]c2c1C(=O)CCC2 [DCB-70132, (Z)-3-(2-((5-(benzylamino)-2-oxoindolin-3-ylidene)methyl)-4-oxo-4,5,6,7-tetrahydro-1H-indol-3-yl)propanoic acid]
8.3 | 3.3 | O=C(O)CCc1c(/C=C2\C(=O)Nc3cc(Br)ccc32)[nH]c2c1C(=O)CCC2 [DCB-70133, (Z)-3-(2-((6-bromo-2-oxoindolin-3-ylidene)methyl)-4-oxo-4,5,6,7-tetrahydro-1H-indol-3-yl)propanoic acid]
24 | -0.3 | CCOC(=O)CCc1c(/C=C2\C(=O)Nc3ccc(NC(=O)Nc4ccccc4)cc32)[nH]c2c1C(=O)CCC2 [DCB-70134, (Z)-ethyl 3-(4-oxo-2-((2-oxo-5-(3-phenylureido)indolin-3-ylidene)methyl)-4,5,6,7-tetrahydro-1H-indol-3-yl)propanoate]
12 | -3.7 | CCOC(=O)CCc1c(/C=C2\C(=O)Nc3ccc(NC(=O)Nc4ccc(Br)cc4)cc32)[nH]c2c1C(=O)CCC2 [DCB-70135, (Z)-ethyl 3-(2-((5-(3-(4-bromophenyl)ureido)-2-oxoindolin-3-ylidene)methyl)-4-oxo-4,5,6,7-tetrahydro-1H-indol-3-yl)propanoate]
21.4 | -7.7 | CCOC(=O)CCc1c(/C=C2\C(=O)Nc3ccc(NC(=O)Nc4ccc(F)cc4)cc32)[nH]c2c1C(=O)CCC2 [DCB-70136, (Z)-ethyl 3-(2-((5-(3-(4-fluorophenyl)ureido)-2-oxoindolin-3-ylidene)methyl)-4-oxo-4,5,6,7-tetrahydro-1H-indol-3-yl)propanoate]
11.5 | 11.5 | CCOC(=O)CCc1c(/C=C2\C(=O)Nc3ccc(NC(=O)Nc4ccc(Cl)c(C(F)(F)F)c4)cc32)[nH]c2c1C(=O)CCC2 [DCB-70137, (Z)-ethyl 3-(2-((5-(3-(4-chloro-3-(trifluoromethyl)phenyl)ureido)-2-oxoindolin-3-ylidene)methyl)-4-oxo-4,5,6,7-tetrahydro-1H-indol-3-yl)propanoate]
7.5 | 9.3 | CCOC(=O)CCc1c(/C=C2\C(=O)Nc3ccc(NC(=O)c4ccc([N+](=O)[O-])cc4)cc32)[nH]c2c1C(=O)CCC2 [DCB-70140, (Z)-ethyl 3-(2-((5-(4-nitrobenzamido)-2-oxoindolin-3-ylidene)methyl)-4-oxo-4,5,6,7-tetrahydro-1H-indol-3-yl)propanoate]
2.4 | 14.4 | CCOC(=O)CCc1c(/C=C2\C(=O)Nc3ccc(NS(=O)(=O)c4ccc(F)cc4)cc32)[nH]c2c1C(=O)CCC2 [DCB-70144, (Z)-ethyl 3-(2-((5-(4-fluorophenylsulfonamido)-2-oxoindolin-3-ylidene)methyl)-4-oxo-4,5,6,7-tetrahydro-1H-indol-3-yl)propanoate]
14.5 | 12.5 | O=C(O)CCc1c(/C=C2\C(=O)Nc3ccc(NS(=O)(=O)c4ccc(F)cc4)cc32)[nH]c2c1C(=O)CCC2 [DCB-70145, (Z)-3-(2-((5-(4-fluorophenylsulfonamido)-2-oxoindolin-3-ylidene)methyl)-4-oxo-4,5,6,7-tetrahydro-1H-indol-3-yl)propanoic acid]

The remaining lines, values behind:

Structure (SMILES) | inhibition at 0.5 µM [1] [%] | inhibition at 0.5 µM [2] [%]
CCOC(=O)CCc1c(/C=C2\C(=O)Nc3ccc(-c4ccc(F)cc4)cc32)[nH]c2c1C(=O)CCC2 [DCB-70108, (Z)-5-(4-fluorophenyl)-3-((3-(3-ethoxy-3-oxopropyl)-4-oxo-4,5,6,7-tetrahydro-1H-indol-2-yl)methylene)indolin-2-one] | 4 | 30.1
O=C(O)CCc1c(/C=C2\C(=O)Nc3ccc(-c4ccc(F)cc4)cc32)[nH]c2c1C(=O)CCC2 [DCB-70109, (Z)-5-(4-fluorophenyl)-3-((3-carboxyethyl-4-oxo-4,5,6,7-tetrahydro-1H-indol-2-yl)methylene)indolin-2-one] | 22.6 | -10.8
O=C(O)CCc1c(/C=C2\C(=O)Nc3ccc(S(=O)(=O)N4CCCCC4)cc32)[nH]c2c1C(=O)CCC2 [DCB-70114, (Z)-5-(piperidin-1-ylsulfonyl)-3-((3-carboxyethyl-4-oxo-4,5,6,7-tetrahydro-1H-indol-2-yl)methylene)indolin-2-one] | 5.6 | 3.5
C=CS(=O)(=O)c1ccc2c(c1)/C(=C/c1[nH]c3c(c1CCC(=O)O)C(=O)CCC3)C(=O)N2 [DCB-70115, (Z)-5-vinylsulfonyl-3-((3-carboxyethyl-4-oxo-4,5,6,7-tetrahydro-1H-indol-2-yl)methylene)indolin-2-one] | 22 | 22.3
CCS(=O)(=O)c1ccc2c(c1)/C(=C/c1[nH]c3c(c1CCC(=O)O)C(=O)CCC3)C(=O)N2 [DCB-70116, (Z)-5-ethylsulfonyl-3-((3-carboxyethyl-4-oxo-4,5,6,7-tetrahydro-1H-indol-2-yl)methylene)indolin-2-one] | 11.2 | 38.1
CNS(=O)(=O)c1ccc2c(c1)/C(=C/c1[nH]c3c(c1CCC(=O)N1CCN(C)CC1)C(=O)CCC3)C(=O)N2 [DCB-70117] | 8.9 | 41.4
CCOC(=O)CCc1c(/C=C2\C(=O)Nc3ccc(NS(=O)(=O)CC)cc32)[nH]c2c1C(=O)CCC2 [DCB-70118, (Z)-5-ethylsulfonamido-3-((3-(3-ethoxy-3-oxopropyl)-4-oxo-4,5,6,7-tetrahydro-1H-indol-2-yl)methylene)indolin-2-one] | 16.1 | 50.9
CCS(=O)(=O)Nc1ccc2c(c1)/C(=C/c1[nH]c3c(c1CCC(=O)O)C(=O)CCC3)C(=O)N2 [DCB-70119, (Z)-5-ethylsulfonamido-3-((3-carboxyethyl-4-oxo-4,5,6,7-tetrahydro-1H-indol-2-yl)methylene)indolin-2-one] | 8.3 | 31.8
CN1CCN(C(=O)CCc2c(/C=C3\C(=O)Nc4ccc(S(=O)(=O)N5CCCC5)cc43)[nH]c3c2C(=O)CCC3)CC1 [DCB-70120, (Z)-3-((3-(3-(4-methylpiperazin-l-yl)-3-oxopropyl)-4-oxo-4,5,6,7-tetrahydro-1H-indol-2-yl)methylene)-5-(pyrrolidin-1-ylsulfonyl)indolin-2-one] | 7.6 | 10
CN(C)S(=O)(=O)c1ccc2c(c1)/C(=C/c1[nH]c3c(c1CCC(=O)O)C(=O)CCC3)C(=O)N2 [DCB-70121, (Z)-5-(N,N-dimethylsulfamoyl)-3-((3-carboxyethyl-4-oxo-4,5,6,7-tetrahydro-1H-indol-2-yl)methylene)indolin-2-one] | 16.9 | -6.7
CCOC(=O)CCc1c(/C=C2\C(=O)Nc3cc(F)ccc32)[nH]c2c1C(=O)CCC2 [DCB-70122, (Z)-6-fluoro-3-((3-(3-ethoxy-3-oxopropyl)-4-oxo-4,5,6,7-tetrahydro-1H-indol-2-yl)methylene)indolin-2-one] | 64.3 | 19.1
O=C(O)CCc1c(/C=C2\C(=O)Nc3cc(F)ccc32)[nH]c2c1C(=O)CCC2 [DCB-70123, (Z)-6-fluoro-3-((3-carboxyethyl-4-oxo-4,5,6,7-tetrahydro-1H-indol-2-yl)methylene)indolin-2-one] | 67.2 | 8.3
CCN(CC)C(=O)CCc1c(/C=C2\C(=O)Nc3ccc(F)cc32)[nH]c2c1C(=O)CCC2 [DCB-70124, (Z)-N,N-diethyl-3-(2-((5-fluoro-2-oxoindolin-3-ylidene)methyl)-4-oxo-4,5,6,7-tetrahydro-1H-indol-3-yl)propanamide] | 64.3 | -0.8
O=C1Nc2ccc(F)cc2/C1=C/c1[nH]c2c(c1CCC(=O)N1CCOCC1)C(=O)CCC2 [DCB-70125, (Z)-5-fluoro-3-((3-(3-morpholino-3-oxopropyl)-4-oxo-4,5,6,7-tetrahydro-1H-indol-2-yl)methylene)indolin-2-one] | 78.2 | 2.9
CCOC(=O)CCc1c(/C=C2\C(=O)Nc3cc(-c4ccc5c(c4)OCO5)ccc32)[nH]c2c1C(=O)CCC2 [DCB-70128, (Z)-ethyl 3-(2-((6-(benzo[d][1,3]dioxol-5-yl)-2-oxoindolin-3-ylidene)methyl)-4-oxo-4,5,6,7-tetrahydro-1H-indol-3-yl)propanoate] | 9 | 12.5
